Like-named read-outs stand apart in the source and are kept apart here.
Assays:
H3K36me3 in A549 cells = assay: In-Cell Western (ICW) assay of SETD2 inhibitors (A549 assay); format: cell-based, human; conditions: A549 cells, read-out: SETD2 A549
Summary of the method: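 A549 cells seeded at 4,000/well onto compound and incubated 3 days at 37° C. Methanol-fixed cells stained overnight at 4° C with anti-H3K36me3 (1:1000), then IRDye 800CW secondary with DRAQ5 DNA counterstain. Plates read by Licor imaging at 700 and 800 channels.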

SETD2(1434-1711) = target: T1, SETD2(1434-1711) (Homo sapiens, UniProt Q9BYW2); assay: SETD2 (1434-1711) assay; format: biochemical; conditions: read-out: SETD2 (1434-1711)
T1 construct: SETD2 (1434-1711) Assay; catalogue N/A
T1 sequence (Q9BYW2 1434-1711): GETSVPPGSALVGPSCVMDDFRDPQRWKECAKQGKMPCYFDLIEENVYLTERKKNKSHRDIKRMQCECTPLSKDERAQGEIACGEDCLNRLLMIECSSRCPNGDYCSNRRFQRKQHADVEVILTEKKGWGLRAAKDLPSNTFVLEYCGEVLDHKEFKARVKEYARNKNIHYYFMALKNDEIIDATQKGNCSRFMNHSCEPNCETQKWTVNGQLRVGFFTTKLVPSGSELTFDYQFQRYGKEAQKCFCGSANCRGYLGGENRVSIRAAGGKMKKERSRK

Compound	IC50 (H3K36me3 in A549 cells; Homo sapiens) [µM]	IC50 (SETD2(1434-1711)) [µM]	IC50 (H3K36me3 in A549 cells) [µM]
Cc1ccc(F)c2cc(C(=O)Nc3cccc(N4C[C@@H](O)[C@H](N(C)C)C4)c3)[nH]c12 [compound 154]	0.3	0.03	–
Cc1ccc(F)c2cc(C(=O)Nc3cccc(-c4ncc[nH]4)c3)[nH]c12 [compound 428]	4.1	1	–
Cc1ccc(F)c2cc(C(=O)Nc3cccc(N4CCOC(CCO)C4)c3)[nH]c12 (stereo not drawn) [compound 50]	–	0.06	0.1
Cc1cccc2cc(C(=O)N[C@H]3CC[C@H](C)CC3)[nH]c12 [compound 504]	–	3.8	14.9
Cc1cccc2cc(C(=O)Nc3ccc4nccn4c3)[nH]c12 [compound 459]	–	1.5	6.2
Cc1ccc(F)c2cc(C(=O)N[C@@H]3CCC[C@@H](c4ccncn4)C3)[nH]c12 [compound 1064]	> 2	2.3	–
Cc1ccc(F)c2cc(C(=O)Nc3cccc(N4CCN(c5ccccc5)CC4)c3)[nH]c12 [compound 312]	1.3	0.8	–
COCC(=O)N(C)C1CCN(C2CCCC(NC(=O)c3cc4c(F)ccc(C)c4[nH]3)C2)C1 (stereo not drawn) [compound 1160]	–	4.3	> 2
Cc1ccc(F)c2cc(C(=O)NC3CCCC(N4CCC(N(C)C(=O)C(C)(C)O)C4)C3)[nH]c12 (stereo not drawn) [compound 1145]	–	1.8	> 2
CCc1cccnc1C(NC(=O)c1cc2cccc(C)c2[nH]1)C1CC1 (stereo not drawn) [compound 521]	19.9	6.9	–
Cc1ccc(F)c2cc(C(=O)N[C@@H]3CCC[C@H](N4CCn5c(nccc5=O)C4)C3)[nH]c12 [compound 1049]	0.1	0.05	–
Cc1ccc(F)c2cc(C(=O)Nc3cc(F)cc(N4CCC5(CCNCC5(F)F)C4)c3)[nH]c12 (stereo not drawn) [compound 28]	0.07	0.01	–
Cc1cc(CCN2CCN(C)CC2)cnc1C(Cc1ccccc1)NC(=O)c1cc2c(F)ccc(C)c2[nH]1 (stereo not drawn) [compound 258]	0.6	0.04	–
Cc1cccnc1C(NC(=O)c1cc2cccc(C)c2[nH]1)C(C)C (stereo not drawn) [compound 474]	8.9	4.2	–
Cc1ccc(F)c2cc(C(=O)NC3CCCC(N4CCC5(CC4)COC(=O)N5)C3)[nH]c12 (stereo not drawn) [compound 895]	1.5	0.05	–
CC(=O)N1CCC([C@H]2CCC[C@@H](NC(=O)c3cc4c(F)ccc(C)c4[nH]3)C2)CC1 [compound 1007]	0.02	0.006	–
CCN(C(=O)CO)C1CCN(C2CCCC(NC(=O)c3cc4c(F)ccc(C)c4[nH]3)C2)C1 (stereo not drawn) [compound 1053]	–	0.03	0.4
Cc1ccc(F)c2cc(C(=O)NC3CCCC(N4CCn5c(nccc5=O)C4)C3)[nH]c12 (stereo not drawn) [compound 1165]	–	3.5	> 2
Cc1ccc(F)c2cc(C(=O)Nc3cccc(CC(N)=O)c3)[nH]c12 [compound 300]	1.2	0.2	–
Cc1ccc(F)c2cc(C(=O)Nc3cccc(C4(C#N)CCC(N(C)C)CC4)c3)[nH]c12 (stereo not drawn) [compound 255]	0.6	0.03	–

Compound	IC50 (H3K36me3 in A549 cells; Homo sapiens) [µM]	IC50 (SETD2(1434-1711)) [µM]	IC50 (H3K36me3 in A549 cells) [µM]
CC(=O)N1CCN(c2cccc(NC(=O)c3cc4c(F)ccc(Br)c4[nH]3)c2)CC1 [compound 84]	–	0.04	0.2
CNC(=O)CCN1CCCC(NC(=O)c2cc3c(F)ccc(C)c3[nH]2)C1 (stereo not drawn) [compound 386]	–	> 10	> 2
Cc1ccc(F)c2cc(C(=O)Nc3cccc(N4CC5(CN(C)C5)C4)c3)[nH]c12 [compound 135]	0.3	0.02	–
Cc1ccc(F)c2cc(C(=O)Nc3cccc(N4CC[C@H](N(C)C)[C@H](F)C4)c3)[nH]c12 [compound 186]	0.4	0.03	–
CCOC(=O)CC(NC(=O)c1cc2cccc(C)c2[nH]1)c1ccccc1 (stereo not drawn) [compound 586]	> 25	36.4	–
Cc1ccc(F)c2cc(C(=O)Nc3cc(F)cc(N4CCC(N5CCN(CC(N)=O)CC5)C4)c3)[nH]c12 (stereo not drawn) [compound 6]	–	0.006	0.04
CCOC(=O)N1CCC(N2CCC[C@H](NC(=O)c3cc4c(F)ccc(C)c4[nH]3)C2)CC1 [compound 876]	> 2	> 10	–
CC(=O)N1CCN(C2COCC(NC(=O)c3cc4c(F)ccc(C)c4[nH]3)C2)CC1 (stereo not drawn) [compound 987]	–	> 10	> 2
Cc1ccc(F)c2cc(C(=O)Nc3cccc(N(C)C4CCN(C)C4)c3)[nH]c12 (stereo not drawn) [compound 342]	1.8	0.1	–
Cc1cccc2cc(C(=O)Nc3cn4ccnc4cn3)[nH]c12 [compound 623]	–	> 200	> 25
Cc1ccc(F)c2cc(C(=O)Nc3cccc(-c4ccc(OCCO)cc4)c3)[nH]c12 [compound 231]	–	0.1	0.5
Cc1ccc(F)c2cc(C(=O)Nc3cc(F)cc(N4CCOC(CO)C4)c3)[nH]c12 (stereo not drawn) [compound 48]	–	0.02	0.1
Cc1ccc(F)c2cc(C(=O)Nc3cccc(N4CCN(C(=O)CF)CC4)c3)[nH]c12 [compound 92]	–	0.03	0.2
Cc1ccc(F)c2cc(C(=O)Nc3cncc(N4CCN(C)CC4)c3)[nH]c12 [compound 410]	–	0.7	3
Cc1ccc(F)c2cc(C(=O)Nc3cc(F)cc(N4CCC(C)(N5CCOCC5)C4)c3)[nH]c12 (stereo not drawn) [compound 159]	0.3	0.08	–
CC(=O)N1[C@@H](C)CN(c2cccc(NC(=O)c3cc4c(F)ccc(C)c4[nH]3)c2)C[C@@H]1C [compound 298]	1.1	0.3	–
Cc1ccc(F)c2cc(C(=O)NC3CCCC(N4CCC(N(C)C(=O)C5COC5)C4)C3)[nH]c12 (stereo not drawn) [compound 946]	–	0.02	0.1
CC(=O)N1CCC(C(N)=O)(c2cc(F)cc(NC(=O)c3cc4c(F)ccc(C)c4[nH]3)c2)CC1 [compound 267]	0.7	0.01	–
Cc1c(C#N)ccnc1C(NC(=O)c1cc2c(F)ccc(C)c2[nH]1)C1CC1 (stereo not drawn) [compound 432]	4.5	0.7	–
CC(=O)N1CCN(c2nccc(NC(=O)c3cc4c(F)ccc(C)c4[nH]3)n2)CC1 [compound 295]	1.1	0.3	–

Compound	IC50 (H3K36me3 in A549 cells; Homo sapiens) [µM]	IC50 (SETD2(1434-1711)) [µM]	IC50 (H3K36me3 in A549 cells) [µM]
Cc1cc2ncc(CN(C)C)n2cc1NC(=O)c1cc2cccc(C)c2[nH]1 [compound 551]	–	6.7	> 25
COCC(=O)N(C)C1CCN([C@H]2CCC[C@@H](NC(=O)c3cc4c(F)ccc(C)c4[nH]3)C2)C1 (stereo partly drawn) [compound 880]	0.1	0.02	–
Cc1ccc(F)c2cc(C(=O)N[C@@H]3CCCC(N4CCNC(=O)CC4)C3)[nH]c12 (stereo partly drawn) [compound 893]	0.9	0.1	–
Cc1ccc(F)c2cc(C(=O)Nc3cccc(N4CCCC(N)C4)c3)[nH]c12 (stereo not drawn) [compound 310]	1.3	0.05	–
Cc1ccc(F)c2cc(C(=O)Nc3cccc(-c4cnn5ccccc45)c3)[nH]c12 [compound 290]	1.1	0.4	–
Cc1ccc(F)c2cc(C(=O)Nc3cccc(C4CCN(C)CC4)c3)[nH]c12 [compound 168]	0.3	0.02	–
COc1cccc(CNCC(O)COc2cnc(C(NC(=O)c3cc4cccc(C)c4[nH]3)C3CC3)c(C)c2)c1 (stereo not drawn) [compound 461]	–	0.5	6.3
CC[C@@H]1CN([C@@H]2CCC[C@@H](NC(=O)c3cc4c(F)ccc(C)c4[nH]3)C2)CCN1C(C)=O [compound 1095]	> 2	0.6	–
Cc1ccc(F)c2cc(C(=O)Nc3cc(F)cc(N4CCC(N5CCn6ccnc6C5)C4)c3)[nH]c12 (stereo not drawn) [compound 29]	–	0.02	0.07
Cc1ccc(F)c2cc(C(=O)NC3CCCC(N4CCN5C(=O)NCC5C4)C3)[nH]c12 (stereo not drawn) [compound 1084]	–	0.1	0.5
CC(=O)N1CCCC12CCN(c1cc(F)cc(NC(=O)c3cc4c(F)ccc(C)c4[nH]3)c1)CC2 [compound 104]	–	0.03	0.2
CCC(=O)N1CCN(c2cccc(NC(=O)c3cc4c(F)ccc(C)c4[nH]3)c2)CC1 [compound 36]	–	0.03	0.09
Cc1ccc(F)c2cc(C(=O)N[C@@H]3CCC[C@H](N4CC[C@H](N(C)C)C4=O)C3)[nH]c12 [compound 1090]	1.1	0.5	–
Cc1ccc(F)c2cc(C(=O)Nc3cc(F)cc(C4CCN5C(=O)CCC5C4)c3)[nH]c12 (stereo not drawn) [compound 26]	–	0.01	0.07
Cc1cccc2cc(C(=O)NC3CCN(C(=O)CCCN)C3)[nH]c12 (stereo not drawn) [compound 593]	> 25	> 50	–
Cc1ccc(F)c2cc(C(=O)Nc3cccc(N4CCN(C(C)C)C(C)C4)c3)[nH]c12 (stereo not drawn) [compound 205]	–	0.03	0.4
Cc1ccc(F)c2cc(C(=O)NC3CCCC(N4CCN(C(=O)CO)C(C(F)(F)F)C4)C3)[nH]c12 (stereo not drawn) [compound 1174]	–	4.8	> 2
Cc1ccc(F)c2cc(C(=O)Nc3cccc(N4CCC(NCc5cnc[nH]5)CC4)c3)[nH]c12 [compound 433]	4.6	0.03	–
Cc1ccc(F)c2cc(C(=O)Nc3cccc(-c4cn[nH]c4N)c3)[nH]c12 [compound 397]	2.4	0.5	–
Cc1ccc(F)c2cc(C(=O)Nc3cccc(-c4ccc(Cn5ccnc5)cc4)c3)[nH]c12 [compound 228]	–	0.08	0.5

— US12116358B2, “Substituted indoles and methods of use thereof” (EPIZYME, INC., priority 2018, dated 2024)
